{
  "source": "patent US11324798B2",
  "about": "“Materials and methods for treatment of inflammation” (CYTOGEL PHARMA, LLC, priority 2010, dated 2022)",
  "key": {"[1]": {"test_system": "CGRP release from isolated rat tracheae", "assay": "Electrical field stimulation (EFS)-evoked release of CGRP from isolated rat tracheae, radioimmunoassay", "format": "cell-based", "conditions": "for Release of CGRP into the incubation medium / Absolute release of CGRP: individual experiments 1-5; for Release of CGRP into the incubation medium, Mean / Absolute release of CGRP, Mean: mean of 5 experiments", "protocol": "(§1) For the in vitro release experiments, a 10 mg/ml (14.62 mM; MW 684) stock solution of CYT-1010 was made in DMSO, which was further diluted with the oxygenated Krebs solution used in the organ bath: 5.5 μl of this CYT-1010 stock solution was added into 40 ml Krebs to make the highest applied 2 μM concentration of compound CYT-1010. Further dilutions to obtain the lower concentrations were prepared with Krebs solution.\n(§2) The incubation media containing the respective CYT-1010 concentrations were administered in the stimulated and post-stimulated 8-min fractions.\n(§3) Since even the highest, 2 μM, concentration of CYT-1010 solution contained negligible amount of DMSO, simple Krebs solution was used in the control experiments.\n(§4) Rats were exsanguinated in deep anaesthesia (sodium thiobarbital, 50 mg/kg i.p.), then the whole trachea was removed and cleaned of fat and adhering connective tissues. Tracheae from two rats were placed into the same 1.8 ml organ bath to obtain sufficient amount of released peptide and perfused (1 ml/min) with pH-(7.2) controlled oxygenized Krebs solution for 60 minutes (equilibration period) at 37° C. temperature. After discontinuation of the flow, the solution was changed three times for eight minutes to produce pre-stimulated, stimulated, post-stimulated fractions.\n(§5) Electrical field stimulation (40 V, 0.1 ms, 10 Hz for 120 s; 1200 pulses) was performed to elicit neurotransmitter release at the beginning of the second 8-minute period. Stimulation with 0.1 ms pulse width selectively activates very fast Na^+ channels, which are only present in the membrane of neural structures (Birmingham and Wilson, 1963; Coburn and Tomita 1973; Szolcsányi and Barthó, 1982); therefore, it excites nerve endings without influencing other excitable cells in the tracheae such as smooth muscle cells.\n(§6) Krebs solution was used in the pre-stimulated fraction for determining the basal CGRP outflow. During the stimulated and post-stimulated fractions, the incubation medium contained the examined concentrations of CYT-1010 (10, 100, 500, 1000 and 2000 nM) in separate experiments, and only one concentration was applied to the same tracheae to avoid neuropeptide depletion. In each group, 5 experiments were performed in parallel in 5 perfusion systems to provide n=5 data per group (10 tracheae per group).\n(§7) 60 male Wistar rats (250-300 g) altogether were divided into 6 experimental groups: Group 1: controls (n=10); Group 2: 10 nM CYT-1010 (n=10); Group 3: 100 nM CYT-1010 (n=10); Group 4: 500 nM CYT-1010 (n=10); Group 5: 1000 nM CYT-1010 (n=10); and Group 6: 2000 nM CYT-1010 (n=10). The total study was performed on three experimental days, two groups every occasion.\n(§8) Calcitonin gene-related peptide (CGRP) and substance P (SP) concentrations were determined from 400-400 μl samples of organ fluid of the preparations by means of radioimmunoassay methods described in Nemeth et al., 1996, 1998, 1999, 2006; Helyes et al., 1997, 2001, 2006; Borzsei et al., 2008). Each of these publications is incorporated herein by reference in its entirety.\n(§9) The released amount of the peptides CGRP and SP was calculated as fmol peptide per mg wet tissue (trachea). The absolute release in response to EFS in each experiment was calculated by adding peptide release in the second and third 8-min fractions and then taking off the basal release measured in the first (pre-stimulated) fraction. The detection limits of the RIA assays were 0.2 fmol/tube and 2 fmol/tube for CGRP and SP, respectively."}, "[2]": {"test_system": "SP release from isolated rat tracheae", "assay": "Electrical field stimulation (EFS)-evoked release of SP from isolated rat tracheae, radioimmunoassay", "format": "cell-based", "conditions": "for SP Release into the incubation medium / Absolute release of SP: individual experiments 1-5; for SP Release into the incubation medium, Mean / Absolute release of SP, Mean: mean of 5 experiments", "protocol": "as §1, §2, §3, §4, §5, §6, §7, §8, §9"}, "[3]": {"conditions": "1 microM, during stimulation (stimulated fraction)"}, "[4]": {"conditions": "2 microM, after stimulation (post-stimulated fraction)"}, "[5]": {"conditions": "2 microM, before stimulation (pre-stimulated fraction)"}, "[6]": {"conditions": "2 microM, during stimulation (stimulated fraction)"}, "[7]": {"conditions": "10-2000 nM added to the second and third fractions"}},
  "note": "Values joined by “and” are separate entries in the source; they are usually repeats but may differ in a detail not shown here. Equal values may be shown once.",
  "data": [
    {"smiles": "NC(Cc1ccc(O)cc1)C(=O)NC1CCCCNC(=O)C(Cc2ccccc2)NC(=O)C(Cc2c[nH]c3ccccc23)NC1=O", "note": "[CYT-1010, H-Tyr-c-[D-Lys-Trp-Phe]]", "values": [
      {"measurement": "Release of CGRP into the incubation medium", "setting": "[1]; 1 microM, during stimulation (stimulated 8-min fraction)", "value": "0.510 fmol/mg wet tissue and 0.433 fmol/mg wet tissue and 0.170 fmol/mg wet tissue (2×) and 0.161 fmol/mg wet tissue"},
      {"measurement": "Release of CGRP into the incubation medium, Mean", "setting": "[1]; [3]", "value": 0.289, "unit": "fmol/mg wet tissue"},
      {"measurement": "Absolute release of CGRP", "setting": "[1]; 1 microM", "value": "0.371 fmol/mg wet tissue and 0.325 fmol/mg wet tissue and 0.083 fmol/mg wet tissue (2×) and 0.077 fmol/mg wet tissue"},
      {"measurement": "Absolute release of CGRP, Mean", "setting": "[1]; 1 microM", "value": 0.188, "unit": "fmol/mg wet tissue"},
      {"measurement": "CGRP release, % increase above baseline", "setting": "[1]; 2 microM, after stimulation", "value": "−4.59", "unit": "%"},
      {"measurement": "Release of CGRP into the incubation medium", "setting": "[1]; 2 microM, after stimulation (post-stimulated 8-min fraction)", "value": "0.200 fmol/mg wet tissue and 0.161 fmol/mg wet tissue and 0.133 fmol/mg wet tissue and 0.018 fmol/mg wet tissue and 0.167 fmol/mg wet tissue"},
      {"measurement": "Release of CGRP into the incubation medium, Mean", "setting": "[1]; [4]", "value": 0.136, "unit": "fmol/mg wet tissue"},
      {"measurement": "CGRP release, % increase above baseline", "setting": "[1]; 2 microM, before stimulation", "value": 0.00, "unit": "%"},
      {"measurement": "Release of CGRP into the incubation medium", "setting": "[1]; 2 microM, before stimulation (pre-stimulated 8-min fraction)", "value": "0.102 fmol/mg wet tissue and 0.231 fmol/mg wet tissue and 0.097 fmol/mg wet tissue and 0.148 fmol/mg wet tissue and 0.134 fmol/mg wet tissue"},
      {"measurement": "Release of CGRP into the incubation medium, Mean", "setting": "[1]; [5]", "value": 0.142, "unit": "fmol/mg wet tissue"},
      {"measurement": "CGRP release, % increase above baseline", "setting": "[1]; 2 microM, during stimulation", "value": 204.09, "unit": "%"},
      {"measurement": "Release of CGRP into the incubation medium", "setting": "[1]; 2 microM, during stimulation (stimulated 8-min fraction)", "value": "0.198 fmol/mg wet tissue and 0.584 fmol/mg wet tissue and 0.388 fmol/mg wet tissue and 0.645 fmol/mg wet tissue and 0.353 fmol/mg wet tissue"},
      {"measurement": "Release of CGRP into the incubation medium, Mean", "setting": "[1]; [6]", "value": 0.433, "unit": "fmol/mg wet tissue"},
      {"measurement": "Absolute release of CGRP", "setting": "[1]; 2 microM", "value": "0.192 fmol/mg wet tissue and 0.284 fmol/mg wet tissue and 0.326 fmol/mg wet tissue and 0.366 fmol/mg wet tissue and 0.253 fmol/mg wet tissue"},
      {"measurement": "Absolute release of CGRP, Mean", "setting": "[1]; 2 microM", "value": 0.284, "unit": "fmol/mg wet tissue"},
      {"measurement": "Effect on stimulation-evoked CGRP release", "setting": "[1]; [7]", "value": "significantly inhibited"},
      {"measurement": "Effect on CGRP release in the third, post-stimulated fraction", "setting": "[1]; 100 and 500 nM", "value": "significantly inhibited"},
      {"measurement": "EC50", "setting": "[1]; sigmoidal concentration-response curve, non-linear least square fit, 10-2000 nM, read-out: EC50 for inhibition of electrically-evoked CGRP release", "value": 40.6, "unit": "nM"},
      {"measurement": "Effect on CGRP release in the third, post-stimulated fraction", "setting": "[1]; two highest concentrations (1000 and 2000 nM)", "value": "abolished"},
      {"measurement": "Inhibition of EFS-evoked SP outflow", "setting": "[2]; 500 nM, 0.5 µM", "value": "64.3% and 64%"},
      {"measurement": "Inhibition of EFS-evoked SP outflow", "setting": "[2]; 1000 nM (maximal inhibition), 1 µM", "value": "71.8% and 72%"},
      {"measurement": "SP release, % increase above baseline", "setting": "[2]; 1 microM, after stimulation", "value": 16.32, "unit": "%"},
      {"measurement": "SP Release into the incubation medium", "setting": "[2]; 1 microM, after stimulation (post-stimulated fraction)", "value": "1.663 fmol/mg wet tissue and 1.966 fmol/mg wet tissue and 1.892 fmol/mg wet tissue and 1.551 fmol/mg wet tissue and 1.397 fmol/mg wet tissue"},
      {"measurement": "SP Release into the incubation medium, Mean", "setting": "[2]; 1 microM, after stimulation", "value": 1.694, "unit": "fmol/mg wet tissue"},
      {"measurement": "SP release, % increase above baseline", "setting": "[2]; 1 microM, before stimulation", "value": 0.00, "unit": "%"},
      {"measurement": "SP Release into the incubation medium", "setting": "[2]; 1 microM, before stimulation (pre-stimulated fraction)", "value": "1.398 fmol/mg wet tissue and 1.806 fmol/mg wet tissue and 1.860 fmol/mg wet tissue and 1.412 fmol/mg wet tissue and 0.805 fmol/mg wet tissue"},
      {"measurement": "SP Release into the incubation medium, Mean", "setting": "[2]; 1 microM, before stimulation", "value": 1.456, "unit": "fmol/mg wet tissue"},
      {"measurement": "SP release, % increase above baseline", "setting": "[2]; 1 microM, during stimulation", "value": 13.32, "unit": "%"},
      {"measurement": "SP Release into the incubation medium", "setting": "[2]; [3]", "value": "1.558 fmol/mg wet tissue and 1.948 fmol/mg wet tissue and 1.992 fmol/mg wet tissue and 1.422 fmol/mg wet tissue and 1.331 fmol/mg wet tissue"},
      {"measurement": "SP Release into the incubation medium, Mean", "setting": "[2]; 1 microM, during stimulation", "value": 1.650, "unit": "fmol/mg wet tissue"},
      {"measurement": "Absolute release of SP", "setting": "[2]; 1 microM", "value": "0.425 fmol/mg wet tissue and 0.302 fmol/mg wet tissue and 0.164 fmol/mg wet tissue and 0.149 fmol/mg wet tissue and 1.118 fmol/mg wet tissue"},
      {"measurement": "Absolute release of SP, Mean", "setting": "[2]; 1 microM", "value": 0.432, "unit": "fmol/mg wet tissue"},
      {"measurement": "SP release, % increase above baseline", "setting": "[2]; 2 microM, after stimulation", "value": 6.72, "unit": "%"},
      {"measurement": "SP Release into the incubation medium", "setting": "[2]; [4]", "value": "2.348 fmol/mg wet tissue and 1.531 fmol/mg wet tissue and 2.246 fmol/mg wet tissue and 1.543 fmol/mg wet tissue and 1.944 fmol/mg wet tissue"},
      {"measurement": "SP Release into the incubation medium, Mean", "setting": "[2]; 2 microM, after stimulation", "value": 1.922, "unit": "fmol/mg wet tissue"},
      {"measurement": "SP release, % increase above baseline", "setting": "[2]; 2 microM, before stimulation", "value": 0.00, "unit": "%"},
      {"measurement": "SP Release into the incubation medium", "setting": "[2]; [5]", "value": "2.406 fmol/mg wet tissue and 1.582 fmol/mg wet tissue and 2.020 fmol/mg wet tissue and 1.132 fmol/mg wet tissue and 1.867 fmol/mg wet tissue"},
      {"measurement": "SP Release into the incubation medium, Mean", "setting": "[2]; 2 microM, before stimulation", "value": 1.801, "unit": "fmol/mg wet tissue"},
      {"measurement": "SP release, % increase above baseline", "setting": "[2]; 2 microM, during stimulation", "value": 56.23, "unit": "%"},
      {"measurement": "SP Release into the incubation medium", "setting": "[2]; [6]", "value": "3.130 fmol/mg wet tissue and 2.398 fmol/mg wet tissue and 2.334 fmol/mg wet tissue and 2.078 fmol/mg wet tissue and 4.132 fmol/mg wet tissue"},
      {"measurement": "SP Release into the incubation medium, Mean", "setting": "[2]; 2 microM, during stimulation", "value": 2.814, "unit": "fmol/mg wet tissue"},
      {"measurement": "Absolute release of SP", "setting": "[2]; 2 microM", "value": "0.666 fmol/mg wet tissue and 0.765 fmol/mg wet tissue and 0.540 fmol/mg wet tissue and 1.357 fmol/mg wet tissue and 2.342 fmol/mg wet tissue"},
      {"measurement": "Absolute release of SP, Mean", "setting": "[2]; 2 microM", "value": 1.134, "unit": "fmol/mg wet tissue"},
      {"measurement": "Effect on stimulation-evoked SP release", "setting": "[2]; [7]", "value": "significantly inhibited"},
      {"measurement": "EC50", "setting": "[2]; sigmoidal concentration-response curve, non-linear least square fit, 10-2000 nM, read-out: EC50 for inhibition of electrically-evoked SP release", "value": 34, "unit": "nM"}
    ]}
  ]
}
